Read-outs that look alike come from different tables or passages of the source.

Series [1] relates to ICR male or female mice. The series can be described thus: Acute toxicity evaluation in mice, intravenous. It is filed as in vivo, mouse. The conditions noted are these: intravenous doses of 5 and 10 mg/kg, deaths recorded at 3, 24, 48 and 72 hours. The procedure:
Compound 20 was formulated in 5% dextrose in water (w/v)/PEG 400 (4:1 v/v) to a maximum concentration of 8 mg/mL. The solution was passed through a 0.8/0.2 micron filter before administration.
ICR male or female mice weighing 20–22 g were maintained in a hygienic environment under controlled temperature (22–24° C.) and humidity (60–80%) with 12-hour light/dark cycles for at least one week. Free access to standard lab chow for mice and tap water was granted.
Three mice/dose (5 and 10 mg/kg) were intravenously administered test compound. Animal deaths were recorded at 3, 24, 48 and 72 hours after treatment.

For series [2], the target named is T1, human serotonin 5-HT2A receptor (Homo sapiens, UniProt P28223).
T1 construct: expressed in transfected cells; host or cells: CHO-K1
T1 sequence (P28223 whole entry): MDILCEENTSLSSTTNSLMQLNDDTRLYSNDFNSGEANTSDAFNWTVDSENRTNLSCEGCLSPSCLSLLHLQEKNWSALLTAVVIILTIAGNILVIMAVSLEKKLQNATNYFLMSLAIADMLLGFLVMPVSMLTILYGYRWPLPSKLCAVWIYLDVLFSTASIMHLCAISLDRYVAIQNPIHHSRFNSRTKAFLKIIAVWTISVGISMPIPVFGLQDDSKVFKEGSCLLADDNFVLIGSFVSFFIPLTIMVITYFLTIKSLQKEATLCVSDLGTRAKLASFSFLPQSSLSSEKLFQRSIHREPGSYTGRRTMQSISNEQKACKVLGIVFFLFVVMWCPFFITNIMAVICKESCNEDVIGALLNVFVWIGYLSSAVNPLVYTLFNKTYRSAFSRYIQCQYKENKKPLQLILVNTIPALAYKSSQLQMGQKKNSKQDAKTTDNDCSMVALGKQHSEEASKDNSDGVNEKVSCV
The series is described as follows: Radioligand binding assay, human 5-HT2A receptors ([3H]Ketanserin). The settings on record: human 5-HT2a, Example 16 table.

The target in series [3] is T2, human serotonin 5-HT2B receptor (Homo sapiens, UniProt P41595).
T2 construct: expressed in transfected cells; host or cells: CHO-K1
T2 sequence (P41595 whole entry): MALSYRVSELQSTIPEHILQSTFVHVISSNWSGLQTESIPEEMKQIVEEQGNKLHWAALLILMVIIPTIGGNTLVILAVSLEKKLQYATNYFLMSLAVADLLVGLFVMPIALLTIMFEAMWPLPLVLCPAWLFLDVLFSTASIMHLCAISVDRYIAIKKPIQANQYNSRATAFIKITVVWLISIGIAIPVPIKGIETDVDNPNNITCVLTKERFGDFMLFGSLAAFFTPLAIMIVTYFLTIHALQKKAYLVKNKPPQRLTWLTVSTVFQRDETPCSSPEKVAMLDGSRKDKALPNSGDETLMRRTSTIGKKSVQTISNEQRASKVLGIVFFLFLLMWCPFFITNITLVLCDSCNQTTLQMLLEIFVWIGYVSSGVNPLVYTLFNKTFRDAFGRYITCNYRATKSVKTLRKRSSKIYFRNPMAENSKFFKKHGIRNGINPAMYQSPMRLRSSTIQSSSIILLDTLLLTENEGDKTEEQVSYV
The series is described as follows: Radioligand binding assay, human 5-HT2B receptors ([3H]LSD). The procedure: This assay measures binding of [^3H]LSD to human serotonin 5-HT2B receptors. CHO-K1 cells stably transfected with a plasmid encoding the human serotonin 5-HT2B receptor were used to prepare membranes in modified Tris-HCl pH 7.4 buffer using standard techniques. […] Non-specific binding was estimated in the presence of 10 μM serotonin. Membranes were filtered and washed 3 times and the filters were counted to determine [^3H]LSD specifically bound. See Bonhaus, D. W. et al. “The pharmacology and distribution of human 5-hydroxytryptamine2B (5-HT2B) receptor gene products: comparison with 5-HT2A and 5-HT2C receptors” Brit.
The human 5-HT2b screen was conducted according to Wolf, W. A. et al. J. Neurochem.

For series [4], the target named is T3, human serotonin 5-HT2C receptor (Homo sapiens, UniProt P28335).
T3 construct: expressed in transfected cells; host or cells: CHO-K1
T3 sequence (P28335 33-458): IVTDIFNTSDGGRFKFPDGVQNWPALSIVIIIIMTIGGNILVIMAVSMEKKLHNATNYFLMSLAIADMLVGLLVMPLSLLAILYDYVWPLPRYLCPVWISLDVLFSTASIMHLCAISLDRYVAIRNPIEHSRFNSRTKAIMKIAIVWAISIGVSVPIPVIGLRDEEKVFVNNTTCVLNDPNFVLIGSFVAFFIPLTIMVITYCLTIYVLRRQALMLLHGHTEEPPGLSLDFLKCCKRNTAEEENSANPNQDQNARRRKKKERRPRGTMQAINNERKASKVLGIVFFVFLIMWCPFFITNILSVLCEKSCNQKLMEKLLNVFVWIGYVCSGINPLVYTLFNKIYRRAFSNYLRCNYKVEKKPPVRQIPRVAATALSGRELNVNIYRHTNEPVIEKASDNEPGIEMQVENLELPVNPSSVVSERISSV
The series can be described thus: Radioligand binding assay, human 5-HT2C receptors ([3H]Mesulergine). The settings on record: human 5-HT2c, Example 16 table. A digest of the protocol:
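Membranes from CHO-K1 cells stably expressing human 5-HT2C receptor were prepared in modified Tris-HCl pH 7.7 buffer. Non-specific binding was defined with 1 μM mianserin.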

Series [5] has as its target T4, human serotonin 5-HT6 receptor (Homo sapiens, UniProt P50406).
T4 construct: expressed in transfected cells; host or cells: HeLa/E6-7
The series can be described thus: Radioligand binding assay, human 5-HT6 receptors ([3H]LSD). The conditions noted are these: Example 16 table. In outline: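 Membranes from HeLa/E6–7 cells stably expressing human 5-HT6, in modified Tris-HCl pH 7.4, incubated (30 μg) with 1.5 nM [3H]LSD for 120 min at 37° C. Non-specific binding defined with 5 μM 5-HT; bound ligand measured by filtration and counting.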

Series [6] concerns the target T5, human dopamine D3 receptor (Homo sapiens, UniProt P35462).
T5 construct: expressed in transfected cells; host or cells: CHO
The series is described as follows: Radioligand binding assay, human dopamine D3 receptors ([3H]Spiperone). The conditions noted are these: Example 20 table.

Series [7] deals with T6, human dopamine transporter (Homo sapiens, UniProt Q01959).
T6 construct: expressed in transfected cells; host or cells: CHO-K1
T6 sequence (Q01959 whole entry): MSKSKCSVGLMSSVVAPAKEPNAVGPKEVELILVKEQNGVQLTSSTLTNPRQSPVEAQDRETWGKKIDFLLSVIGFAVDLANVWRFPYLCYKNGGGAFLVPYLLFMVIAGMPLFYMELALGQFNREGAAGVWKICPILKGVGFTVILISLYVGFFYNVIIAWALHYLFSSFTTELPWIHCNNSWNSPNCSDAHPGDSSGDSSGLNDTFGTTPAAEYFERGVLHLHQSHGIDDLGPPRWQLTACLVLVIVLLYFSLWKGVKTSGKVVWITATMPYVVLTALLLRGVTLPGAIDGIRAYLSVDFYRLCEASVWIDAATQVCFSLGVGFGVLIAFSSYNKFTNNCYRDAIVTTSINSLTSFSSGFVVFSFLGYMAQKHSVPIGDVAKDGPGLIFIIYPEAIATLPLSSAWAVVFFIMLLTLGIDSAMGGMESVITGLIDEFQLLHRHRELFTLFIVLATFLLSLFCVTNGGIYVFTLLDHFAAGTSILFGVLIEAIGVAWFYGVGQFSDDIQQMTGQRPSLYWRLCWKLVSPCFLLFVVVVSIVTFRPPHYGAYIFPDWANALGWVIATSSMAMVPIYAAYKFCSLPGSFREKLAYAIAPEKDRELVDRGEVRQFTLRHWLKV
The series can be described thus: Binding to human dopamine transporter ([125I]RTI-55). The protocol: CHO-K1 cell membranes stably transfected with a plasmid encoding the human dopamine transporter were prepared in modified Tris-HCl pH 7.4 buffer using standard techniques. […] Non-specific binding was estimated in the presence of 10 μM nomifensine. […] Trends. […]

Setting [8] is: human 5-HT2b, Example 16 table, read-out: IC50 (nM) 5-HT2b.
Where [9] appears, read: human 5-HT6, read-out: IC50 (nM) 5-HT6.
[10] abbreviates: read-out: IC50 (nM) Against Human D3 Receptors.
Where [11] appears, read: human, Example 101 table, read-out: IC50 (nM) DAT.

T5 sequence (P35462 whole entry): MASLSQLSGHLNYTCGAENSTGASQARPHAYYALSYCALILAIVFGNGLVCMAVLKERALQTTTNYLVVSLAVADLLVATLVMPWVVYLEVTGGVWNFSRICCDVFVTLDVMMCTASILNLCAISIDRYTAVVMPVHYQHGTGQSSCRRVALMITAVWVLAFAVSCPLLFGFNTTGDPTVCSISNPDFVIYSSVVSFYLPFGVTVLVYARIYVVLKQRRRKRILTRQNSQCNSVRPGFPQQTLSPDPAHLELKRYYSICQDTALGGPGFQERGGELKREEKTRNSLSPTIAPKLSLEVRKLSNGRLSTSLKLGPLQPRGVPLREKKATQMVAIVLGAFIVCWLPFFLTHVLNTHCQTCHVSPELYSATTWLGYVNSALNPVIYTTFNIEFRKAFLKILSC
T4 sequence (P50406 whole entry): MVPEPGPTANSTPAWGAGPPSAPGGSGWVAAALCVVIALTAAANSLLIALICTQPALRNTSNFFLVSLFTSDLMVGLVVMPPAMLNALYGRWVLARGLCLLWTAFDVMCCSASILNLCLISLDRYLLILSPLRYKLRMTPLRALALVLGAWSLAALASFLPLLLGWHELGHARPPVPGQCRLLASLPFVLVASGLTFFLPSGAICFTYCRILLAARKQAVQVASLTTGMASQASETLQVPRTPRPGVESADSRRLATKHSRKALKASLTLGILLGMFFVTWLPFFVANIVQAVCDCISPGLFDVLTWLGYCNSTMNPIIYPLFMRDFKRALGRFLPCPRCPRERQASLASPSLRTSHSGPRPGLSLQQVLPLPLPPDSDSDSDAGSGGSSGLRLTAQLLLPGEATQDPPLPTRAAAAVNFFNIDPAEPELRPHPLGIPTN

Turning to `CCN(CC)CCCNc1nc(C2(c3ccc(Cl)cc3)CCC2)cs1.O=C(O)CC(O)(CC(=O)O)C(=O)O` [Compound 20, N′-{4-[1-(4-chlorophenyl)cyclobutyl]thiazol-2-yl}-N,N-diethylpropane-1,3-diamine citrate salt], the Animal deaths entry in series [1] is “no deaths were observed”.

Consider `CN1CCN(c2nc(C3(c4ccc(Cl)cc4)CCC3)no2)CC1` [Compound 28, 1-{3-[1-(4-chlorophenyl)cyclobutyl]-[1,2,4]oxadiazol-5-yl}-4-methylpiperazine], for which the IC50 in series [2] (read-out: IC50 (nM) 5-HT2a), in series [3] (setting [8]), in series [4] (read-out: IC50 (nM) 5-HT2c), in series [5] (setting [9]), in series [6] (setting [10]) and in series [7] (setting [11]) was over 1000 nM in each case.

Consider `CN1CCN(c2nc(C3(c4ccc(Cl)cc4)CCOCC3)cs2)CC1` [Compound 29, 1-{4-[4-(4-chlorophenyl)tetrahydropyran-4-yl]-thiazol-2-yl}-4-methylpiperazine], for which the IC50 was over 1000 nM in series [2] (IC50 (nM) 5-HT2a); over 1000 nM in series [3]; under 1000 nM in series [4] (IC50 (nM) 5-HT2c); under 100 nM in series [5] (IC50 (nM) 5-HT6, human 5-HT6); under 1000 nM in series [6] (IC50 (nM) Against Human D3 Receptors); under 1000 nM in series [7].

As to `CN1CCN(c2nc(CCc3ccc(Cl)cc3)cs2)CC1` [Compound 32], the IC50 was under 100 nM in series [2] (read-out: IC50 (nM) 5-HT2a); under 1000 nM in series [3] (setting [8]); under 100 nM in series [4] (read-out: IC50 (nM) 5-HT2c); over 1000 nM in series [5] (setting [9]); over 1000 nM in series [6] (setting [10]); over 1000 nM in series [7] (setting [11]).

With `CN1CCC(c2nc(C3(c4ccc(Cl)cc4)CCCCC3)cs2)CC1` [Compound 35], the IC50 in series [2] (read-out: IC50 (nM) 5-HT2a) was under 1000 nM; in series [3] (setting [8]), under 1000 nM; in series [4] (read-out: IC50 (nM) 5-HT2c), under 1000 nM; in series [5] (setting [9]) it was under 1000 nM; in series [6] (setting [10]), under 100 nM; in series [7] (setting [11]), under 100 nM.

For `COc1ccc(C2(c3csc(N4CCN(C)CC4)n3)CCOCC2)cc1OC` [Compound 74], the IC50 in series [2] (read-out: IC50 (nM) 5-HT2a), in series [3] (setting [8]), in series [4] (read-out: IC50 (nM) 5-HT2c), in series [5] (setting [9]), in series [6] (setting [10]) and in series [7] (setting [11]) was over 1000 nM in each case.

In the case of `CN1CCN(c2nc(C3(c4ccc(Cl)cc4)CCCC3)cs2)CC1` [Compound 85], the IC50 is over 1000 nM in series [2] (read-out: IC50 (nM) 5-HT2a); under 1000 nM in series [3] (setting [8]); under 1000 nM in series [4] (read-out: IC50 (nM) 5-HT2c); under 100 nM in series [5] (setting [9]); under 1000 nM in series [6] (setting [10]); under 100 nM in series [7] (setting [11]).
